Measurements taken from patent publication US9512128B2 (BAYER CROPSCIENCE AG, priority 2012, dated 2016).

Legend:
[1] = tested on: southern root-knot nematode (Meloidogyne incognita); assay: Meloidogyne incognita test (MELGIN); type: in vivo; conditions: application rate 20 ppm, after 14 days, lettuce
Procedure: 5. Meloidogyne incognita Test (MELGIN) • Solvent: 125.0 parts by weight of acetone To prepare a suitable active compound preparation, 1 part by weight of active compound is mixed with the stated amount of solvent and the concentrate is diluted with water to the desired concentration. Vessels are filled with sand, active compound solution, an egg/larvae suspension of the southern root-knot nematode (Meloidogyne incognita) and lettuce seeds. The lettuce seeds germinate and the plants develop. On the roots, galls are formed. After 14 days, the nematicidal effect in % is determined by the formation of galls. 100% means that no galls have been found; 0% means that the number of galls on the treated plants corresponds to the untreated control.

[2] = tested on: greenhouse red spider mite (Tetranychus urticae); assay: Tetranychus urticae spray test, OP-resistant (TETRUR); type: in vivo; conditions: after 6 days, bean leaf discs
Procedure: 4. Tetranychus urticae Spray Test, OP-Resistant (TETRUR)
• Solvents: 78.0 parts by weight of acetone • 1.5 part by weight of dimethylformamide • Emulsifier: 0.5 part by weight of alkylaryl polyglycol ether
To produce a suitable preparation of active compound, 1 part by weight of active compound is mixed with the stated amounts of solvents and emulsifier, and the concentrate is diluted with emulsifier-containing water to the desired concentration.
Discs of bean leaves (Phaseolus vulgaris) which are infested by all stages of the greenhouse red spider mite (Tetranychus urticae) are sprayed with an active compound preparation of the desired concentration.
After 6 days, the efficacy in % is determined. 100% means that all of the spider mites have been killed; 0% means that none of the spider mites have been killed.

| SMILES | nematicidal effect in % (formation of galls) [1] | efficacy in % (spider mites killed) ([2]; application rate 500 g/ha) | efficacy in % (spider mites killed) ([2]; application rate 100 g/ha) |
| --- | --- | --- | --- |
| CCn1ncc2ncn(-c3cc(SCC(F)(F)F)c(C)cc3F)c(=O)c21 [Compound 159] | 100% | 100% | – |
| CCn1ncc2nc(C)n(-c3cc(SCC(F)(F)F)c(C)cc3F)c(=O)c21 [Compound 160] | 100% | 100% | – |
| Cc1cc(F)c(-n2c(C)nc3cnn(C(C)C)c3c2=O)cc1SCC(F)(F)F [Compound 162] | 90% | 100% | – |
| CCn1ncc2ncn(-c3cc([S+]([O-])CC(F)(F)F)c(C)cc3F)c(=O)c21 (centres unmarked) [Compound 163] | 90% | 100% | – |
| CCn1ncc2nc(C)n(-c3cc([S+]([O-])CC(F)(F)F)c(C)cc3F)c(=O)c21 (centres unmarked) [Compound 164] | 100% | 100% | – |
| Cc1cc(F)c(-n2cnc3cnn(CC4CC4)c3c2=O)cc1SCC(F)(F)F [Compound 167] | 100% | 100% | – |
| Cc1cc(F)c(-n2cnc3cnn(CC4CC4)c3c2=O)cc1[S+]([O-])CC(F)(F)F (centres unmarked) [Compound 169] | 100% | 100% | – |
| Cc1cc(F)c(-n2c(C)nc3cnn(CC4CC4)c3c2=O)cc1[S+]([O-])CC(F)(F)F (centres unmarked) [Compound 170] | 100% | 100% | – |
| Cc1cc(F)c(-n2cnc3c(C)nsc3c2=O)cc1[S+]([O-])CC(F)(F)F (centres unmarked) [Compound 181] | 90% | 100% | – |
| Cc1cc(F)c(-n2c(C)nc3ncsc3c2=O)cc1[S+]([O-])CC(F)(F)F (centres unmarked) [Compound 188] | 90% | 100% | – |
| Cc1cc(F)c(-n2cnc3onc(C)c3c2=O)cc1SCC(F)(F)F [Compound 194] | 100% | 90% | – |
| CCc1noc2ncn(-c3cc(SCC(F)(F)F)c(C)cc3F)c(=O)c12 [Compound 195] | 90% | 90% | – |
| Cc1cc(F)c(-n2cnc3onc(C)c3c2=O)cc1[S+]([O-])CC(F)(F)F (centres unmarked) [Compound 196] | 100% | – | 90% |
| CCc1noc2ncn(-c3cc([S+]([O-])CC(F)(F)F)c(C)cc3F)c(=O)c12 (centres unmarked) [Compound 198] | 100% | 90% | – |
| Cc1cc(F)c(-n2cnc3onc(C(F)(F)F)c3c2=O)cc1[S+]([O-])CC(F)(F)F (centres unmarked) [Compound 199] | 100% | 90% | – |
| Cc1cc(F)c(-n2cnc3onc(C(C)C)c3c2=O)cc1[S+]([O-])CC(F)(F)F (centres unmarked) [Compound 200] | 100% | 100% | – |
| Cc1cc(F)c(-n2cnc3snc(C)c3c2=O)cc1SCC(F)(F)F [Compound 202] | 90% | 90% | – |
| Cc1cc(F)c(-n2c(C)nc3snc(C)c3c2=O)cc1SCC(F)(F)F [Compound 209] | 100% | 90% | – |
| Cc1cc(F)c(-n2c(C)nc3snc(C)c3c2=O)cc1[S+]([O-])CC(F)(F)F (centres unmarked) [Compound 210] | 100% | 100% | – |
